In paper PMC4624771, “Oriented Cell Division in the C. elegans Embryo Is Coordinated by G-Protein Signaling Dependent on the Adhesion GPCR LAT-1” (PLoS Genetics, 2015):

Assays:
lat-1 mutant embryos = test: Embryonic lethality after adenylyl cyclase inhibition, lat-1 mutants; assay type: in vivo, C. elegans; conditions: 1 mM ddA vs 1% DMSO mock; n > 520
Experimental: (§1) All compounds were obtained from Sigma Aldrich. Forskolin was dissolved in DMSO to 10 mM, 3-isobutyl-1-methylxanthine (IBMX) in Dent´s buffer to 10 mM, 8-bromoadenosine 3′,5′-cyclic monophosphate (8-Br-cAMP) in 1 N ammonium hydroxide to 250 mM and 2',5'-dideoxyadenosine (ddA) was diluted in DMSO to 100 mM prior to final dilution in Dent´s buffer. Peptides were synthesized (see Supporting Experimental Procedures) and dissolved in DMSO to 100 mM prior to final dilution in M9. Worms were incubated in 80 μM forskolin, 10 mM IBMX, 0.25 mM 8-Br-cAMP, 1 mM ddA or 0.1 mM peptide solution, respectively, containing E. coli OP50.
(§2) Supplementary file pgen.1005624.s005.tif: S4 Fig Inhibition of adenylyl cyclases in wild-type hermaphrodites partially mimics the lat-1 phenotype. […] Note that this effect might be not fully penetrant due potential difficulties in drug accessibility. As controls, nematodes were treated with 1% DMSO lacking ddA (mock). Individuals surviving embryogenesis were scored (n > 520). Data are given as means ± SD. n.s. not significant; *** p < 0.001. (TIF) Click here for additional data file.

wild-type embryos = test: Embryonic lethality after adenylyl cyclase inhibition, wild-type; assay type: in vivo, C. elegans; conditions: adult hermaphrodites and subsequently very early embryos, 1 mM ddA vs 1% DMSO mock; n > 520
Experimental: as §1, §2

[1] = tested on: cAMP levels in C. elegans embryos and adults; test: In vivo cAMP measurement in C. elegans embryos and adults; conditions: cAMP accumulation assay after lysis
Source text: (§3) Fig 2 Division plane defects in lat-1 mutant embryos are rescued by elevation of intracellular cAMP via a Gs protein/adenylyl cyclase pathway. […] In wild-type embryos treated with the RNAi control vector L4440 ABal divides in an anterior-posterior direction (A) whereas in treated lat-1 mutants the division plane is almost perpendicular to MS (B). gsa-1 RNAi by feeding over two generations leads to a turning of the F2 ABal division plane in a direction similar to that in lat-1 mutants (C). F2 lat-1; gsa-1(RNAi) embryos show a similar ABal division plane to lat-1 mutants (D). (E) Cell division plane angles of ABal relative to MS after knockdown of gsa-1. […] The vector L4440 served as negative control. Data are shown as means ± SD. * p < 0.05; *** p < 0.001; n ≥ 11. (F) cAMP levels are reduced in lat-1 embryos compared to a control wild-type population. cAMP levels were measured after lysis (15 μg protein) by cAMP accumulation assay. Assays were performed in three independent experiments, data are given as means ± SD. ** p < 0.01. […] Mothers and subsequently offspring of wild-type and lat-1 individuals were incubated and individuals reaching adulthood were scored (n = 410). […] Data were calculated from pixel analyses utilizing DIC images and are shown as means ± SD, ** p < 0.01. […]

C. elegans embryos = test: Contact length ratio of ABala-MS to ABalp-MS in embryos; assay type: in vivo; conditions: n = 11
Source text: as §3

lat-1(ok1465) nematodes = test: Lethality rescue assay in lat-1 mutant nematodes; assay type: in vivo
Source text: Fig 2 Division plane defects in lat-1 mutant embryos are rescued by elevation of intracellular cAMP via a Gs protein/adenylyl cyclase pathway. […] In wild-type embryos treated with the RNAi control vector L4440 ABal divides in an anterior-posterior direction (A) whereas in treated lat-1 mutants the division plane is almost perpendicular to MS (B). gsa-1 RNAi by feeding over two generations leads to a turning of the F2 ABal division plane in a direction similar to that in lat-1 mutants (C). F2 lat-1; gsa-1(RNAi) embryos show a similar ABal division plane to lat-1 mutants (D). (E) Cell division plane angles of ABal relative to MS after knockdown of gsa-1. […] The vector L4440 served as negative control. Data are shown as means ± SD. * p < 0.05; *** p < 0.001; n ≥ 11. (F) cAMP levels are reduced in lat-1 embryos compared to a control wild-type population. cAMP levels were measured after lysis (15 μg protein) by cAMP accumulation assay. Assays were performed in three independent experiments, data are given as means ± SD. ** p < 0.01. (G) Rescue of developmental lethality in lat-1 nematodes treated with compounds promoting cAMP accumulation: forskolin (80 μM), IBMX (10 mM) and 8-Br-cAMP (0.25 mM). Mothers and subsequently offspring of wild-type and lat-1 individuals were incubated and individuals reaching adulthood were scored (n = 410). As controls, nematodes were incubated in solvent without drug (mock). Data are shown as means ± SD. * p < 0.05; ** p < 0.01; *** p < 0.001. (H) Forskolin increases cAMP levels in C. elegans embryos and adults. lat-1 mutants and subsequently embryos were incubated with 80 μM forskolin. […] As controls, nematodes were treated with 0.8% DMSO lacking forskolin (mock). Basal cAMP levels of mock control are: 0.70 ± 0.14 nM (wild-type embryos); 0.37 ± 0.19 nM (lat-1 embryos); 1.9 ± 0.7 nM (wild-type adults); 2.3 ± 0.8 nM (lat-1 adults). Assays were performed in three independent experiments, data are given as means ± SD. * p < 0.05; ** p < 0.01; *** p < 0.001. (I-L) Relative positions of ABala, ABalp, and MS in an AB^4 embryo. Schematic representation (top) and DIC microscopy (bottom), scale bars = 10 μm. In wild-type embryos (I) and embryos incubated in 80 μM forskolin for 120 minutes (K) ABal divides in an anterior-posterior direction with only ABalp forming an interface with MS. In lat-1 mutants the division plane is skewed resulting in ABala and ABalp contacting MS (J). lat-1 embryos treated with 80 μM forskolin for 120 minutes display wild-type division and cell interfaces (L). (M) Arrangement of blastomeres in the 12-cell stage embryo. […] The right-hand side is two views of the mean positions of the blastomeres. The spheres are enlarged to convey an impression of the contacts. Forskolin turns the ABal spindle in the mutant in a more anterior direction. (N) Cell division plane angles of ABal relative to MS of untreated wild-type/lat-1 controls and wild-type/lat-1 embryos after incubation of mothers and subsequently embryos for 48 hours in 80 μM forskolin. Upon forskolin treatment, mutant embryos display a wild-type division angle. As controls, nematodes were treated with 0.8% DMSO lacking forskolin (mock). Data are shown as average angles ± SD, *** p < 0.001; n ≥ 12. (O) Forskolin reduces the contact length of ABala to MS. Ratio of relative contact lengths of ABala to MS and ABalp to MS cells lat-1 embryos untreated (control, n = 10) and after incubation of mothers and subsequently embryos for 48 hours in 80 μM forskolin (n = 11). […] Data were calculated from pixel analyses utilizing DIC images and are shown as means ± SD, ** p < 0.01.
All compounds were obtained from Sigma Aldrich. Forskolin was dissolved in DMSO to 10 mM, 3-isobutyl-1-methylxanthine (IBMX) in Dent´s buffer to 10 mM, 8-bromoadenosine 3′,5′-cyclic monophosphate (8-Br-cAMP) in 1 N ammonium hydroxide to 250 mM and 2',5'-dideoxyadenosine (ddA) was diluted in DMSO to 100 mM prior to final dilution in Dent´s buffer. […]

lat-1 mutants = test: Fertility rescue assay (brood size); assay type: in vivo, C. elegans; conditions: 80 μM forskolin, independently of time and duration of drug application
Experimental: Supplementary file pgen.1005624.s004.tif: S3 Fig A cAMP-mediated signal is involved in the role of LAT-1 in cleavage plane orientation but not in fertility. (A) Fertility defects of lat-1 mutants are not rescued by treatment of hermaphrodites from embryonic stages to adulthood with 80 μM forskolin. Brood size was scored compared to untreated (mock), DMSO-treated (0.8%) and wild-type control. Data are given as means ± SD, n.s. not significant. […] (TIF) Click here for additional data file.
Ten L4 hermaphrodites were allowed to lay eggs on separate NGM plates containing 80 µM forskolin or respective solvent and seeded with OP50. Plates were incubated at 22 °C. Every 24 hours hermaphrodites were transferred onto fresh plates until egg-laying ceased and embryos were scored. Experiments were conducted at least in triplicate. Data were examined with an unpaired two-tailed t test for each genotype and condition, means are presented with SD.

[2] = target: rat latrophilin LPHN1 (ADGRL1) (rat) (UniProt O88917)
[3] = target: T1, C. elegans latrophilin homolog LAT-1 (C. elegans) (UniProt G5EDW2)
T1 sequence: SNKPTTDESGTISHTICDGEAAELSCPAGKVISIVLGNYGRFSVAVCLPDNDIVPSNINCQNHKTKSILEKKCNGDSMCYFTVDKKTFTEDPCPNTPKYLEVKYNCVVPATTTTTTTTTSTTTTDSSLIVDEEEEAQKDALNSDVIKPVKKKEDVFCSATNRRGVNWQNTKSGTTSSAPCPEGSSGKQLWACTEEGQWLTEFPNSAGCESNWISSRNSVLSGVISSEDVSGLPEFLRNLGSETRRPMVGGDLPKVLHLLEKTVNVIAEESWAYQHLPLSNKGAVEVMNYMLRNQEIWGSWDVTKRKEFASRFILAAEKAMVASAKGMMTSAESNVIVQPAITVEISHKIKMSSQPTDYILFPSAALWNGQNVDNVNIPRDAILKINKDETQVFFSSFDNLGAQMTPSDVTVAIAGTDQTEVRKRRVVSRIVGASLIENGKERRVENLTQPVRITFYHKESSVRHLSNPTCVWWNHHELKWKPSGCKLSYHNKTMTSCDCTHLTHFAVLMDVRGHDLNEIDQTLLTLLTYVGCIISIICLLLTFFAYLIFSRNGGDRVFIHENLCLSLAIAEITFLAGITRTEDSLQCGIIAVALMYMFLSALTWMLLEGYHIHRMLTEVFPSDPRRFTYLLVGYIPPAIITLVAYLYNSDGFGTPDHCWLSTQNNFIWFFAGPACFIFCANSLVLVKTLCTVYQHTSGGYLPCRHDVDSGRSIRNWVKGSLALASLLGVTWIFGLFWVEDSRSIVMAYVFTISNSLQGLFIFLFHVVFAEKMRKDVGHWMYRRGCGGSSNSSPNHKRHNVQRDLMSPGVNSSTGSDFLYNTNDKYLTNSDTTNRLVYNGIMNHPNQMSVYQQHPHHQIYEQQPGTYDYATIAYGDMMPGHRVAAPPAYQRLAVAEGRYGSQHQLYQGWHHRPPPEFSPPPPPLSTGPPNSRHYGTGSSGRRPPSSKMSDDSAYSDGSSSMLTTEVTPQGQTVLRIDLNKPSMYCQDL

Chain of UniProt O88917 (O88917 25-1515): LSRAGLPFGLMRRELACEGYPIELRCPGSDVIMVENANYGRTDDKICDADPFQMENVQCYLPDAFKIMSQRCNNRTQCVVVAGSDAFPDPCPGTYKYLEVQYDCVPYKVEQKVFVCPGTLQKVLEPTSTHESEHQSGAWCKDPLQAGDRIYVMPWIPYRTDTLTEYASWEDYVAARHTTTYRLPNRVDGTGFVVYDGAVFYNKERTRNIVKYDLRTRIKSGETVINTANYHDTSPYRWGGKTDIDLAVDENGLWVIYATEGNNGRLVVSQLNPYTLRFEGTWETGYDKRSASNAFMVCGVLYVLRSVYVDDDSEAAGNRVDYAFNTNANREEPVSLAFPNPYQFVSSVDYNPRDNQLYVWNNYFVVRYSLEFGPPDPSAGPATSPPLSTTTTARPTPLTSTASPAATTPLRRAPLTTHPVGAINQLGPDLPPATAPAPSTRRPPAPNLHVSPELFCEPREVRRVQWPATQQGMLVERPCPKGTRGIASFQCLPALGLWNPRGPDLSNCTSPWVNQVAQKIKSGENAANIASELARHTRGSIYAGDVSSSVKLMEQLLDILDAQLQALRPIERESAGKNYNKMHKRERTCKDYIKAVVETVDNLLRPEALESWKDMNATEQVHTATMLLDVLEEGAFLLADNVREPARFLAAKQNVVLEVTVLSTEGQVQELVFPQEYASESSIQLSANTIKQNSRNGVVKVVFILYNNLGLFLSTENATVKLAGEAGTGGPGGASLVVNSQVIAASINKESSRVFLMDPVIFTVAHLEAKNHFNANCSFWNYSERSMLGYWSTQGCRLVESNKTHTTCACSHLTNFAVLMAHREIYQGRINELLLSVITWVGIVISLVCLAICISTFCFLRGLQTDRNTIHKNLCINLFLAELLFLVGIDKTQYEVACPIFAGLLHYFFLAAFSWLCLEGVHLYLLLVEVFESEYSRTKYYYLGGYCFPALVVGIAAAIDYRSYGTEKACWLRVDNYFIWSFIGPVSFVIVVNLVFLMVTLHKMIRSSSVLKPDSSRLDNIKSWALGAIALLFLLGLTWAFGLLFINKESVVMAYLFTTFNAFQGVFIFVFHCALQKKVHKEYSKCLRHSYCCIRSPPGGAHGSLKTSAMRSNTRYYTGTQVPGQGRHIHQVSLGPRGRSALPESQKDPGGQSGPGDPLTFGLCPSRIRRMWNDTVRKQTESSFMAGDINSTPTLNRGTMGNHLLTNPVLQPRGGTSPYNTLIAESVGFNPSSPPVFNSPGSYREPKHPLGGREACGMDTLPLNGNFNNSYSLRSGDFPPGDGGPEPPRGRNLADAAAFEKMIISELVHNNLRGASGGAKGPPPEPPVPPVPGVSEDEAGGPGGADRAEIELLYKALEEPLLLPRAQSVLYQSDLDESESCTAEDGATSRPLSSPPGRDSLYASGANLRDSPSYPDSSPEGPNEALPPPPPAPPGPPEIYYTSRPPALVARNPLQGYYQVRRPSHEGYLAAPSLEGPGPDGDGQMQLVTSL

For `C[C@H]1O[C@@H](n2cnc3c(N)ncnc32)C[C@@H]1O` [ddA, 2',5'-dideoxyadenosine], the “embryonic lethality in lat-1 mutant embryos, in words” value (lat-1 mutant embryos) was “not in lat-1 mutant embryos” and the “embryonic lethality in wild-type, in words” value (wild-type embryos) was “specific embryonic lethality”.

In the case of `C=C[C@@]1(C)CC(=O)[C@]2(O)[C@@]3(C)[C@@H](O)CCC(C)(C)[C@@H]3[C@H](O)[C@H](OC(C)=O)[C@@]2(C)O1` [forskolin], the “cAMP levels in embryos, in words” value ([1]; lat-1 mutants and subsequently embryos incubated with 80 μM forskolin vs 0.8% DMSO mock) is reported as “increase in cAMP levels”, the “cAMP in hermaphrodites, in words” value ([1]; wild-type and lat-1 hermaphrodites (L4 stage), 80 μM forskolin 48 hours vs 0.8% DMSO mock) is reported as “elevated cAMP” and the “contact of ABala to MS in wild-type embryos, in words” value (C. elegans embryos; forskolin-treated wild-type embryos, 80 μM) is reported as “does not contact MS”. For the same molecule, the “contact of ABala to MS in lat-1 embryos, in words” value (C. elegans embryos; lat-1 embryos, mothers and subsequently embryos 48 hours in 80 μM forskolin, untreated ratio 0.72 ± 0.03) was “strongly reduced”, the “effect on embryonic lethality of lat-1 worms, in words” value (lat-1(ok1465) nematodes; L4 larvae and subsequently embryos incubated, forskolin 80 μM, IBMX 10 mM, 8-Br-cAMP 0.25 mM) was “amelioration of embryonic lethality” and the “time point of drug application needed for rescue of developmental lethality, in words” value (lat-1(ok1465) nematodes; lat-1 mutants, 80 μM forskolin) was “only when adding forskolin to the mother or the very early embryonic stages”. The “survival rate (individuals reaching adulthood)” value (lat-1(ok1465) nematodes; lat-1 worms, mothers (L4) and subsequently offspring incubated in 80 μM forskolin, untreated 33%) was 73%, the “effect of concentrations higher than 80 μM on C. elegans, in words” value (lat-1(ok1465) nematodes; various concentrations tested) was “higher concentrations were detrimental” and the “concentration with optimal effect” value (lat-1(ok1465) nematodes; various concentrations tested on C. elegans) was 80 µM. For the same molecule, the “rescue of reduced brood size of lat-1 mutants, in words” value (lat-1 mutants) was “did not detect any rescue”.

Work on “RP13, peptide of 13 amino acids C-terminal of the rat LPHN1 GPS cleavage site” yielded a cAMP accumulation (ALPHAScreen) in COS-7 cells transfected with rat LPHN1 and stimulated with 1 mM peptide, fold over basal [2] of 2.3 fold.

Molecule THFAVLMDVRGH [CP12, peptide of 12 amino acids C-terminal of the LAT-1 GPS cleavage site] has a cAMP accumulation (ALPHAScreen) in lat-1-transfected COS-7 cells stimulated with 1 mM peptide, fold over basal [3] of 1.6 fold.
